pEC50: −log10 of the molar value.
How the values were obtained:
[1] = Allosteric inhibition of HCV genotype 1b NS5A infected in human l389lucubi- neo/NS3-375.1-containing Huh7ET cells assessed as RNA replication/translation after 4 days by luciferase reporter gene assay
[2] = Allosteric inhibition of HCV genotype 1a NS5A infected in human W11.8 cells assessed as reduction in viral RNA replication after 4 days by ELISA
Nonstructural protein 5A = target: T1, Nonstructural protein 5A (UniProt Q5L478); assay: Allosteric inhibition of HCV genotype 1b NS5A infected in human l389lucubi- neo/NS3-375.1-containing Huh7ET cells assessed as RNA replication/translation after 4 days by luciferase reporter gene assay
T1 sequence (Q5L478 whole entry): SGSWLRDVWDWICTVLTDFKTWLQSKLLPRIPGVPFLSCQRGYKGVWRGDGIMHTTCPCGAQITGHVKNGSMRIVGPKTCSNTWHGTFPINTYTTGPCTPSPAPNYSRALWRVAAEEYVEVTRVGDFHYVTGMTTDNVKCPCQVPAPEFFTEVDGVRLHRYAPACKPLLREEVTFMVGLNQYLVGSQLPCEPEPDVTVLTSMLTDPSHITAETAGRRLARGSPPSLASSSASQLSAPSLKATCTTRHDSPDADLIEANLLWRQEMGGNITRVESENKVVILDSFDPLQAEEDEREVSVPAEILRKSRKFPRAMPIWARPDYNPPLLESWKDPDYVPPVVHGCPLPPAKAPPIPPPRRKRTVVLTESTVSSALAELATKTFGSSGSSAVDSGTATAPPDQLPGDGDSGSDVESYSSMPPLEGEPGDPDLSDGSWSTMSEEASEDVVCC

[3] = Allosteric inhibition of HCV genotype 1b NS5A infected in human l389lucubi- neo/NS3-375.1-containing Huh7ET cells assessed as RNA replication/translation after 4 days in presence of 40% human serum by luciferase reporter gene assay

`CC(C)(C)C#Cc1cc(N(CC(=O)N2CC(O)C2)C(=O)[C@H]2CC[C@H](C)CC2)c(C(=O)O)s1` gave a pEC50 [1] of 7.18.

For `CC[C@@H](C(=O)N(C)C)N(c1cc(C#CC(C)(C)C)sc1C(=O)O)C(=O)[C@H]1CC[C@H](C)CC1`, the pEC50 [2] was 7.62 and the pEC50 [1] was 7.80.

`CCC[C@@H](C(=O)N(C)C)N(c1cc(C#CC(C)(C)C)sc1C(=O)O)C(=O)[C@H]1CC[C@H](C)CC1` gave a pEC50 [1] of 7.85.

With `CNC(=O)CN(c1cc(C#CC(C)(C)C)sc1C(=O)O)C(=O)[C@H]1CC[C@H](C)CC1` the pEC50 [1] was 6.72.

In the case of `C[C@@H](C(=O)N(C)C)N(c1cc(C#CC(C)(C)C)sc1C(=O)O)C(=O)[C@H]1CC[C@H](C)CC1`, the pEC50 [2] was 8.15 and the pEC50 [1] was 8.30.

In the case of `CC(C)[C@@H](C(=O)N(C)C)N(c1cc(C#CC(C)(C)C)sc1C(=O)O)C(=O)[C@H]1CC[C@H](C)CC1`, the pEC50 [1] was 7.29.

In the case of `C[C@H](C(=O)N(C)C)N(c1cc(C#CC(C)(C)C)sc1C(=O)O)C(=O)[C@H]1CC[C@H](C)CC1`, the pEC50 [1] was 6.96.

`CN(C)CCN(C)C(=O)CN(c1cc(C#CC(C)(C)C)sc1C(=O)O)C(=O)[C@H]1CC[C@H](C)CC1` gave a pEC50 [1] of 8.05.

With `CC(C)(C)C#Cc1cc(N(CC(=O)N2CCCCC2)C(=O)[C@H]2CC[C@H](C)CC2)c(C(=O)O)s1` the pEC50 [1] was 7.17.

With `COC1CCN(C(=O)CN(c2cc(C#CC(C)(C)C)sc2C(=O)O)C(=O)[C@H]2CC[C@H](C)CC2)CC1` the pEC50 [1] was 7.77.

In the case of `CN(C)C(=O)[C@H](CO)N(c1cc(C#CC(C)(C)C)sc1C(=O)O)C(=O)[C@H]1CC[C@H](C)CC1`, the pEC50 [1] was 7.22.

For `CC(C)(C)C#Cc1cc(N(CC(=O)N2CCCC2)C(=O)[C@H]2CC[C@H](C)CC2)c(C(=O)O)s1`, the pEC50 [2] was 7.49 and the pEC50 [1] was 7.68.

In the case of `CC(C)(C)C#Cc1cc(N(C(=O)[C@H]2CC[C@H](C)CC2)[C@H]2CC[C@H](O)CC2)c(C(=O)O)s1` [Lomibuvir], the pEC50 [2] was 7.28 and the pEC50 [1] was 8.15.

In the case of `COC[C@@H](C(=O)N(C)C)N(c1cc(C#CC(C)(C)C)sc1C(=O)O)C(=O)[C@H]1CC[C@H](C)CC1`, the pEC50 [2] was 7.96 and the pEC50 [1] was 8.15.

In the case of `CC(C)NC(=O)CN(c1cc(C#CC(C)(C)C)sc1C(=O)O)C(=O)[C@H]1CC[C@H](C)CC1`, the pEC50 [1] was 6.80.

`CC(C)(C)C#Cc1cc(N(CC(=O)N2CCC(O)CC2)C(=O)[C@H]2CC[C@H](C)CC2)c(C(=O)O)s1` showed a pEC50 [1] of 7.19.

Compound `CC(C)(C)C#Cc1cc(N(CC(=O)N2CCOCC2)C(=O)[C@H]2CC[C@H](C)CC2)c(C(=O)O)s1` has a pEC50 (Nonstructural protein 5A) of 7.64, a pEC50 [2] of 7.43 and a pEC50 [3] of 6.47.

In the case of `CN1CCN(C(=O)CN(c2cc(C#CC(C)(C)C)sc2C(=O)O)C(=O)[C@H]2CC[C@H](C)CC2)CC1`, the pEC50 [1] was 8.22.

Work on `CCN(CC)C(=O)CN(c1cc(C#CC(C)(C)C)sc1C(=O)O)C(=O)[C@H]1CC[C@H](C)CC1` yielded a pEC50 [2] of 7.29 and a pEC50 [1] of 7.64.

Work on `CN(C)C(=O)CN(c1cc(C#CC(C)(C)C)sc1C(=O)O)C(=O)[C@H]1CC[C@H](C)CC1` yielded a pEC50 [2] of 7.46 and a pEC50 [1] of 7.92.
